ChEMBL document CHEMBL1201862, “PubChem BioAssay data set” (2004)
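Following 48 hours of exposure in 96-well plates, responses at five concentrations were used to interpolate endpoints linearly. Here, GI50 denotes the concentration required for 50% inhibition of growth.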 Active and inactive are the calls of the source. Rule as the data show it: active = GI50 up to about 1.1 µM and inactive = higher.

Tests used:
Test in all cases: DTP human tumour cell line panel, 48 h
OVCAR-4 = tested on: OVCAR-4
MOLT-4 = tested on: MOLT-4
MDA-MB-231 = tested on: MDA-MB-231
TK-10 = tested on: TK-10
M14 = tested on: M14
A549 = tested on: A549
PC-3 = tested on: PC-3
UACC-257 = tested on: UACC-257
786-0 = tested on: 786-0
EKVX = tested on: EKVX
SF-539 = tested on: SF-539
MDA-MB-435 = tested on: MDA-MB-435
ACHN = tested on: ACHN
SN12C = tested on: SN12C
NCI-H460 = tested on: NCI-H460
COLO 205 = tested on: COLO 205
HCC 2998 = tested on: HCC 2998
Hs-578T = tested on: Hs-578T
RXF 393 = tested on: RXF 393
DMS-114 = tested on: DMS-114

Row | SMILES | GI50 (OVCAR-4) | GI50 (MOLT-4) | GI50 (MDA-MB-231) | GI50 (TK-10) | GI50 (M14) | GI50 (A549) | GI50 (PC-3) | GI50 (UACC-257) | GI50 (786-0) | GI50 (EKVX) | GI50 (SF-539) | GI50 (MDA-MB-435) | GI50 (ACHN) | GI50 (SN12C) | GI50 (NCI-H460) | GI50 (COLO 205) | GI50 (HCC 2998) | GI50 (Hs-578T) | GI50 (RXF 393) | GI50 (DMS-114)
1 | COc1cc2c(cc1OC)C(=O)/C(=C/c1cc(C)c(O)c(C)c1)C2 | > 100 µM (inactive) | < 0.01 µM (active) | 0.0171 µM (active) | > 76.7 µM (inactive) | < 0.01 µM (active) | < 0.0165 µM (active) | < 0.01 µM (active) | 0.755 µM (active) | < 0.0184 µM (active) | < 0.01 µM (active) | < 0.01 µM (active) | < 0.01 µM (active) | 0.0603 µM (active) | 0.0244 µM (active) | < 0.01 µM (active) | 5.02 µM (inactive) | < 0.0407 µM (active) | < 0.01 µM (active) | < 0.0504 µM (active) | –
2 | O=C1Nc2ccccc2/C1=N/NC(=S)Nc1ccc(Cl)cc1 | 30.4 µM (inactive) | 26.1 µM (inactive) | 26.7 µM (inactive) | 16.1 µM (inactive) | 15 µM (inactive) | 34.6 µM (inactive) | 33.7 µM (inactive) | 15.2 µM (inactive) | 22.3 µM (inactive) | 36.2 µM (inactive) | 29.2 µM (inactive) | 39.8 µM (inactive) | 25.6 µM (inactive) | 29.3 µM (inactive) | 15.5 µM (inactive) | 40.8 µM (inactive) | > 100 µM (inactive) | > 100 µM (inactive) | 39.4 µM (inactive) | –
3 | Cc1cc(Cl)ccc1NC(=O)C1C(=O)C(=O)N(c2ccc(Cl)cc2C)C1=O (stereo not given) | 38.6 µM (inactive) | 24.7 µM (inactive) | – | > 100 µM (inactive) | 31.2 µM (inactive) | > 100 µM (inactive) | – | > 100 µM (inactive) | > 100 µM (inactive) | 36.8 µM (inactive) | > 100 µM (inactive) | – | > 100 µM (inactive) | > 100 µM (inactive) | – | > 100 µM (inactive) | > 100 µM (inactive) | – | – | 25.1 µM (inactive)
4 | Clc1ccc(OCC2NC3CCC2CC3)cn1 (stereo not given) | 37.9 µM (inactive) | 17.2 µM (inactive) | 19.1 µM (inactive) | 42.3 µM (inactive) | 21.2 µM (inactive) | 37.9 µM (inactive) | 25.6 µM (inactive) | 17.8 µM (inactive) | 18.3 µM (inactive) | 26.3 µM (inactive) | 20.7 µM (inactive) | 20.4 µM (inactive) | 33.3 µM (inactive) | 28.4 µM (inactive) | 21.3 µM (inactive) | 17.1 µM (inactive) | 16.6 µM (inactive) | 57.1 µM (inactive) | 36.9 µM (inactive) | –
5 | C#CCn1c(I)cc2c(c1=O)COC(=O)[C@]2(O)CC | > 100 µM (inactive) | > 100 µM (inactive) | > 100 µM (inactive) | > 100 µM (inactive) | > 100 µM (inactive) | > 100 µM (inactive) | > 100 µM (inactive) | > 100 µM (inactive) | > 100 µM (inactive) | > 100 µM (inactive) | > 100 µM (inactive) | > 100 µM (inactive) | > 100 µM (inactive) | > 100 µM (inactive) | > 100 µM (inactive) | > 100 µM (inactive) | > 100 µM (inactive) | > 100 µM (inactive) | > 100 µM (inactive) | –
6 | O=CNNC(=O)CSc1nc2ccc(I)cc2c(=O)n1Cc1ccccc1 | 40.4 µM (inactive) | 0.361 µM (active) | 29.3 µM (inactive) | 38.6 µM (inactive) | 31.6 µM (inactive) | 37.4 µM (inactive) | 39 µM (inactive) | 22.9 µM (inactive) | 31.3 µM (inactive) | 23.9 µM (inactive) | 34.6 µM (inactive) | 40.5 µM (inactive) | 34.8 µM (inactive) | 28.4 µM (inactive) | 20 µM (inactive) | 17.9 µM (inactive) | 26.8 µM (inactive) | 34 µM (inactive) | 29.1 µM (inactive) | –
7 | CCCCOC(=O)Nc1ccc(S(=O)(=O)Nc2ccccc2Cl)cc1 | 12.4 µM (inactive) | 12.6 µM (inactive) | 21 µM (inactive) | 21.6 µM (inactive) | 19.8 µM (inactive) | 32.5 µM (inactive) | 24.9 µM (inactive) | 31.3 µM (inactive) | 21.5 µM (inactive) | 20.7 µM (inactive) | 17.6 µM (inactive) | 18.8 µM (inactive) | 27.8 µM (inactive) | 21.2 µM (inactive) | 18.2 µM (inactive) | 20.7 µM (inactive) | 14.1 µM (inactive) | 21.5 µM (inactive) | 21.3 µM (inactive) | –
8 | C=CCOC1CC(n2cnc3c(N)ncnc32)OC1CO (stereo not given) | > 100 µM (inactive) | > 100 µM (inactive) | – | > 100 µM (inactive) | > 100 µM (inactive) | > 100 µM (inactive) | – | > 100 µM (inactive) | > 100 µM (inactive) | – | > 100 µM (inactive) | – | > 100 µM (inactive) | – | > 100 µM (inactive) | > 100 µM (inactive) | > 100 µM (inactive) | – | – | > 100 µM (inactive)
9 | Cc1cn(CCCCCCC2=NCCCN2)c(=O)[nH]c1=O | > 100 µM (inactive) | > 100 µM (inactive) | > 100 µM (inactive) | > 100 µM (inactive) | > 100 µM (inactive) | > 100 µM (inactive) | > 100 µM (inactive) | > 100 µM (inactive) | > 100 µM (inactive) | > 100 µM (inactive) | > 100 µM (inactive) | > 100 µM (inactive) | > 100 µM (inactive) | > 100 µM (inactive) | > 100 µM (inactive) | > 100 µM (inactive) | > 100 µM (inactive) | > 100 µM (inactive) | > 100 µM (inactive) | –
10 | CCCCCCCC(=O)OCC(COC(=O)C(C)(C)C)OC(=O)Cc1ccccc1 (stereo not given) | > 100 µM (inactive) | > 100 µM (inactive) | – | > 100 µM (inactive) | > 100 µM (inactive) | > 100 µM (inactive) | – | – | > 100 µM (inactive) | – | – | – | > 100 µM (inactive) | > 100 µM (inactive) | > 100 µM (inactive) | > 100 µM (inactive) | > 100 µM (inactive) | – | – | > 100 µM (inactive)
11 | C=C1CCCC2[C@](C)(CC3=C(Cl)C(=O)C=C(OC)C3=O)C(C)CC[C@]12C (stereo not given in full) | 7.52 µM (inactive) | 0.745 µM (active) | 7.6 µM (inactive) | 4.34 µM (inactive) | 4.33 µM (inactive) | 5.27 µM (inactive) | 1.58 µM (inactive) | 5.89 µM (inactive) | 1.85 µM (inactive) | 2.02 µM (inactive) | 2.33 µM (inactive) | 6.62 µM (inactive) | 4.66 µM (inactive) | 5.77 µM (inactive) | 8.63 µM (inactive) | 3.37 µM (inactive) | 9.12 µM (inactive) | 8.71 µM (inactive) | 5.42 µM (inactive) | –
12 | CCNC(=S)N/N=C1\C(=O)Nc2ccc([N+](=O)[O-])cc21 | 25.6 µM (inactive) | 22.4 µM (inactive) | 35.3 µM (inactive) | 18.2 µM (inactive) | 46.7 µM (inactive) | 35.7 µM (inactive) | 97.5 µM (inactive) | 53.5 µM (inactive) | 19.1 µM (inactive) | 50.5 µM (inactive) | 30.2 µM (inactive) | 88.1 µM (inactive) | 31.2 µM (inactive) | 31.7 µM (inactive) | 20.4 µM (inactive) | > 100 µM (inactive) | 24.9 µM (inactive) | 98.9 µM (inactive) | 26 µM (inactive) | –
